Changes are numbered by the printed parent chain. Like-named read-outs stand apart in the source and are kept apart here.
What was measured:
ratBsep = ratBsep (Rattus norvegicus, UniProt O70127)
Protocol: (§1) Measurement of the vesicular transport activity in case of Bsep: The transport activity measurements were carried out with purified membrane vesicles containing human, rat or mouse Bsep (ABCB11, sPgp) transporter isolated from baculovirus infected Sf9 (Spodoptera frugiperda)cells. The membrane preparations contain 5-16% closed, inside-out oriented, membrane vesicles. The transporter pumps the molecules inside of these vesicles. The vesicles can be separated by rapid filtration of the membrane suspension through a glass filter or through a nitrocellulose membrane (using vacuum).
(§2) The quantitative determination of the transported molecule can be done in several ways, like: HPLC, LC/MS, but also fluorescent or radioactive labeling is also suitable. Tritium labeled substrates were used in the assays and the mode of detection was liquid-scintillation.
(§3) Assay Design and Main Steps for Bsep • Prepare an appropriate concentration of membrane suspension in assay buffer; add the unlabeled and ^3H-labeled substrates to the suspension.

mouseBsep = biological target: T1, mouseBsep (Mus musculus, UniProt Q9QY30)
T1 sequence (Q9QY30 1-1321): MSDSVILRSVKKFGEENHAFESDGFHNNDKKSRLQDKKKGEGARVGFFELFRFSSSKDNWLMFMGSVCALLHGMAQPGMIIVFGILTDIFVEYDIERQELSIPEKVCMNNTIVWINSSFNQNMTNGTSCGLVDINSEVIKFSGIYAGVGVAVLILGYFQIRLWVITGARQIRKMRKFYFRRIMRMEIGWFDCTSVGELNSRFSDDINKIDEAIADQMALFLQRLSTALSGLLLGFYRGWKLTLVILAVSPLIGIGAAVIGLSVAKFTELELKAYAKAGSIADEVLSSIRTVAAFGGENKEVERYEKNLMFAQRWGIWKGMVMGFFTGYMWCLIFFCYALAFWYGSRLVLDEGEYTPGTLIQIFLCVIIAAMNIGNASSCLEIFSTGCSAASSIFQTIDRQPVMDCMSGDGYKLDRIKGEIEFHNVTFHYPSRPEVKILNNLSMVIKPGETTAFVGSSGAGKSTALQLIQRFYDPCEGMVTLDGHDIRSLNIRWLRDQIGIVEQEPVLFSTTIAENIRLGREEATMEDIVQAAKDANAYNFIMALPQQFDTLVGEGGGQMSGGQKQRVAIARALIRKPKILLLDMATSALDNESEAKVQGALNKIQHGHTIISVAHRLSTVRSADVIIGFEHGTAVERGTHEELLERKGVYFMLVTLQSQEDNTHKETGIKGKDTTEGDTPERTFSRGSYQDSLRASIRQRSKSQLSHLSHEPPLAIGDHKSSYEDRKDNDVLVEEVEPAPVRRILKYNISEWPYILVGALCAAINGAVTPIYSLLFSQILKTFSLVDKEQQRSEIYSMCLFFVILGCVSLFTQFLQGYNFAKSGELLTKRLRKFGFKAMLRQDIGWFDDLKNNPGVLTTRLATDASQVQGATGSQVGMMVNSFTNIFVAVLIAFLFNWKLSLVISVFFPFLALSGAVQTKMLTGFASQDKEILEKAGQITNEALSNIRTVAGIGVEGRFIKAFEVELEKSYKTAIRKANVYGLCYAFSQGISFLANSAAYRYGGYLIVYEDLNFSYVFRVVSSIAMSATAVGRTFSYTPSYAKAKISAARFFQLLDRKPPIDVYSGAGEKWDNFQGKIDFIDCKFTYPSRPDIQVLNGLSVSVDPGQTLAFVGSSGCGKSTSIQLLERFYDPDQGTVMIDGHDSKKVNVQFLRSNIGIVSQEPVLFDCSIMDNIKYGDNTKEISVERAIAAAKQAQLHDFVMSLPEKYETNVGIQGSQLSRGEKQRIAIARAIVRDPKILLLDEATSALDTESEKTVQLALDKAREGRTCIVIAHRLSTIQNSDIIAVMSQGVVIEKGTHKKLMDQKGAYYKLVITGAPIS
Protocol: as §1, §2, §3

humanBSEP = humanBSEP (Homo sapiens, UniProt O95342)
Sequence of humanBSEP (O95342 whole entry): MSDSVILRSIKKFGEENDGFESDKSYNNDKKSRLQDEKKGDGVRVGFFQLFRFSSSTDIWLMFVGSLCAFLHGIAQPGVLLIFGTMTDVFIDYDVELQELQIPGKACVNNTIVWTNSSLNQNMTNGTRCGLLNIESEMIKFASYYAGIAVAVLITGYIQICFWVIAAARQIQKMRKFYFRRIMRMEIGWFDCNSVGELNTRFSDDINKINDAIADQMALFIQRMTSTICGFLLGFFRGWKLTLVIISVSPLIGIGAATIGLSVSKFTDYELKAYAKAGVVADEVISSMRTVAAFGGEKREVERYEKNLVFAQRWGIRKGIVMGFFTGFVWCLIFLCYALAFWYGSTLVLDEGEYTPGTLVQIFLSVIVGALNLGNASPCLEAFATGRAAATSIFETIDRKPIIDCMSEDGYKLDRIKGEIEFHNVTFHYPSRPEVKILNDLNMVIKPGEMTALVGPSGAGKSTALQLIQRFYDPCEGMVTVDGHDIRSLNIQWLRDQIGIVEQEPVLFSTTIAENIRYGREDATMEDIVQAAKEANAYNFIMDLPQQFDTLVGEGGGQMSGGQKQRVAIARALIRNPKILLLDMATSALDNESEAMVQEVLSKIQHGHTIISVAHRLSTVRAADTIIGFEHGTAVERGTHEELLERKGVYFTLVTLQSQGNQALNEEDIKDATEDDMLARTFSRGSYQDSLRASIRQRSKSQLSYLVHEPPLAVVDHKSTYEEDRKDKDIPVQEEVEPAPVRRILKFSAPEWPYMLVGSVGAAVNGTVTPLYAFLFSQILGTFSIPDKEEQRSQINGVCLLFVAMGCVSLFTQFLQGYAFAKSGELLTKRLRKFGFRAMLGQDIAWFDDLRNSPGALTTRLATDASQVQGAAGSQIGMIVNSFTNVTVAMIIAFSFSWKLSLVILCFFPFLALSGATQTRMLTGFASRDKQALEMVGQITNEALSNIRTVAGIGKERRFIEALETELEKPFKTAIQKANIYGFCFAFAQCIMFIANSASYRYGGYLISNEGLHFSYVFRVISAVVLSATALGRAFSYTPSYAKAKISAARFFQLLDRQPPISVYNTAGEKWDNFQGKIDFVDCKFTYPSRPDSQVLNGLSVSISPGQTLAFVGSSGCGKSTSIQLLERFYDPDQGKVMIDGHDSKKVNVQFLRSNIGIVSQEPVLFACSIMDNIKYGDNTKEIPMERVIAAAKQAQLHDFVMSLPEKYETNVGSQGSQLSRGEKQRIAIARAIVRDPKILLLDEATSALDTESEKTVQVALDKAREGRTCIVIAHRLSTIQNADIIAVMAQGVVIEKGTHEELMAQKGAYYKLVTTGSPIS
Protocol: as §1, §2, §3

wild-type ABCG2 [1] = biological target: T2, wild-type ABCG2 (Homo sapiens, UniProt Q9UNQ0); test: Vesicular transport assay, inside-out ABCG2-Sf9 membrane vesicles
T2 sequence (Q9UNQ0 1-655): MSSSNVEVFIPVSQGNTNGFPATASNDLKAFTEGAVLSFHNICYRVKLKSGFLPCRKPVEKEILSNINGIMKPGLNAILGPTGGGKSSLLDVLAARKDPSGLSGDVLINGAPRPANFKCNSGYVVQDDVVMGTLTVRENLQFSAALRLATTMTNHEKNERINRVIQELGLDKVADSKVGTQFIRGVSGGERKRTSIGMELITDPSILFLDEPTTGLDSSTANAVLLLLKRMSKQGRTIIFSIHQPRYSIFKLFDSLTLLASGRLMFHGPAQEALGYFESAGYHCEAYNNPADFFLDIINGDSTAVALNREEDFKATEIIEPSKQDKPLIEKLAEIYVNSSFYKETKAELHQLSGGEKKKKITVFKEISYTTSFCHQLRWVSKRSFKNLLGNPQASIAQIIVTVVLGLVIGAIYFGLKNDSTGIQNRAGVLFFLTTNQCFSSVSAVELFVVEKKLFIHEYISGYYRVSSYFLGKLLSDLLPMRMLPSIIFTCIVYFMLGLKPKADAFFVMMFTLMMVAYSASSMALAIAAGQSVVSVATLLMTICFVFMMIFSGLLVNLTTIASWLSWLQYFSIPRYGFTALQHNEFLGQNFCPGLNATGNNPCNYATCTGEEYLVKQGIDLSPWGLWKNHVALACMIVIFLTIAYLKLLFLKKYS
Protocol: as §1, with “activity:” for “activity in case of Bsep:”, “ABCG2” for “human, rat”, “or” for “or mouse”, “Bsep” for “Bsep (ABCB11, sPgp) transporter”, “frugiperda) cells or mammalian (ABCG2-M) cells.” for “frugiperda)cells.”, “rapidly filtrating” for “rapid filtration”
as §2
Measurement of the vesicular transport activity in case of ABCG2: More closely, as examples, inside-out membrane vesicles were incubated in the presence or absence of 4 mM ATP. […] The transport was stopped by addition of cold wash buffer (40 mM MOPS-Tris (pH 7.0), 70 mM KCl).
The transport was stopped by addition of cold wash buffer (10 mM Tris-HCl, pH 7.4; 250 mM sucrose and 100 mM NaCl).
For estrone-3-sulfate vesicular transport 10 mM Tris-HCl, (pH 7.4), 250 mM sucrose, and 10 mM MgCl2 containing buffer were incubated at 32° C. for 1 min. The transport was stopped by addition of cold wash buffer (10 mM Tris-HCl, pH 7.4; 250 mM sucrose and 100 mM NaCl).
The incubation mix was then rapidly filtered through class B glass fiber filters (pore size, 0.1 μm). Filters were washed with 5×200 μl of ice cold wash buffer and radioactivity retained on the filter was measured by liquid scintillation counting. ATP-dependent transport was calculated by subtracting the values obtained in the absence of ATP from those in the presence of ATP.
Exemplary Assay Design and Main Steps for ABCG2 • Prepare an appropriate concentration of membrane suspension in assay buffer; add the unlabeled and ^3H-labeled substrates to the suspension.

wild-type ABCG2 [2] = biological target: T2, wild-type ABCG2; conditions: 2 min
Protocol: Following UV-irradiation, gel-electrophoresis and electroblotting, the labeled bands were visualized by Phospho-Imager.
Isolated Sf9 cell membranes, containing the same amount of wild-type ABCG2 protein were loaded with cholesterol by preincubation with 4 mM C-CD, as described in the Methods. Cholesterol-loaded membrane vesicles contained 50 μg cholesterol/mg membrane protein, while the control membranes contained 8 μg cholesterol/mg membrane protein.

R482G-ABCG2 = biological target: T3, R482G-ABCG2 (Homo sapiens, UniProt Q9UNQ0, R482G); test: Vesicular MTX transport, Sf9 vesicles with R482G variant; type: biochemical; conditions: control and cholesterol-loaded Sf9 membrane vesicles
T3 construct: made in house; host or cells: Sf9 cells infected with recombinant baculovirus
T3 sequence (Q9UNQ0 1-655 R482G): T2 sequence (Q9UNQ0 1-655) with R482G
Protocol: MTX uptake was measured at 100 μM MTX concentration for 5 min at 37° C. in membrane vesicles containing the human wild-type ABCG2 (WT), or R482G-ABCG2 (G) transporter.
MTX and ESG uptake was measured for 5 min at 37° C. at 5 mM ATP in membrane vesicles containing the human wild-type ABCG2 (WT), or R482G-ABCG2 (G) transporter. […] The mean values±SD are presented.
Vesicular transport studies: In these experiments we carried out direct, ATP-dependent substrate transport measurements by using isolated inside-out membrane vesicles of ABCG2-expressing Sf9 cells.

ABCG2-R482T = biological target: T4, ABCG2-R482T (Homo sapiens, UniProt Q9UNQ0, R482T); test: Vesicular MTX transport, Sf9 vesicles with R482T variant; type: biochemical; conditions: irrespective of the membrane cholesterol content
T4 construct: made in house; host or cells: Sf9 cells infected with recombinant baculovirus
T4 sequence (Q9UNQ0 1-655 R482T): T2 sequence (Q9UNQ0 1-655) with R482T

Sequence of ratBsep (O70127 whole entry): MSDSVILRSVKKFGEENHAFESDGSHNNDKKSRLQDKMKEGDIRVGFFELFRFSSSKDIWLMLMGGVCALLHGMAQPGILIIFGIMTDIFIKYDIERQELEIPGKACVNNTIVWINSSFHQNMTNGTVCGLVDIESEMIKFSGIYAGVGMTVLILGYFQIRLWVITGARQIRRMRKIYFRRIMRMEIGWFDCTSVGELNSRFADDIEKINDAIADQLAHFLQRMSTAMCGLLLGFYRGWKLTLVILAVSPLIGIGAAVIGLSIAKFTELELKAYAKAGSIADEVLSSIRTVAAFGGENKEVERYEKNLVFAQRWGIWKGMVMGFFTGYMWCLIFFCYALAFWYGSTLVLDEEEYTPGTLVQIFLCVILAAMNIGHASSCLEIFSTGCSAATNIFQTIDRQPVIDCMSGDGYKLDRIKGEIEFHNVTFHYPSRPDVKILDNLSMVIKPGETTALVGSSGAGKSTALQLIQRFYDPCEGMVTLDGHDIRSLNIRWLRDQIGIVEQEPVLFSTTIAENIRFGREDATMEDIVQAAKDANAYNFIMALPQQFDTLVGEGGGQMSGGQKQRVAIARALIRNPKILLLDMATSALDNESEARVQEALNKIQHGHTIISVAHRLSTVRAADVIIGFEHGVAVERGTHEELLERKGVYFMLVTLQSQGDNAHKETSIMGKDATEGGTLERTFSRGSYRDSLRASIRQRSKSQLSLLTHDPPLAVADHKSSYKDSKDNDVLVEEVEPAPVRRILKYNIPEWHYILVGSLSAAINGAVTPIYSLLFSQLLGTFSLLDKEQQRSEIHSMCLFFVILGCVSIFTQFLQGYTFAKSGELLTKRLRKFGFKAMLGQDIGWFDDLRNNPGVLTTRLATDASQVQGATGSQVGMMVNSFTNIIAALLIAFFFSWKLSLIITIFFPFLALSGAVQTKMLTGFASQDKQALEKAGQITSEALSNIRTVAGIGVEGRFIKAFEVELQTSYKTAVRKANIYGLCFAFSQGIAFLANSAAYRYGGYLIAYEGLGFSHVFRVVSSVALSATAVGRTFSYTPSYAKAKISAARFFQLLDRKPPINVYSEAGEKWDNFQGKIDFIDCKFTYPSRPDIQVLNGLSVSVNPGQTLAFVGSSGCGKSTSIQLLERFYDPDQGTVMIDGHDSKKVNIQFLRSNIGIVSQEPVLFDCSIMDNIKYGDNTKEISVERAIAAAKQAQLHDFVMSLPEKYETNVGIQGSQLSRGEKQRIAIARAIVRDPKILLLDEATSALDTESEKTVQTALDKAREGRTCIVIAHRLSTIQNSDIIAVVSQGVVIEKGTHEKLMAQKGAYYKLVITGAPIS

SMILES: C[C@H](CCC(=O)NCCS(=O)(=O)O)[C@H]1CC[C@H]2[C@@H]3[C@H](O)C[C@@H]4C[C@H](O)CC[C@]4(C)[C@H]3C[C@H](O)[C@]12C [TC, Taurocholic acid]
- VMAX of taurocholate transport (ratBsep; ratBsep-Sf9 + Chol): 121.3 pmol TC/mg prot/min
- VMAX of taurocholate transport (ratBsep; ratBsep-Sf9 CTRL): 14.54 pmol TC/mg prot/min
- VMAX of taurocholate transport (mouseBsep; mouseBsep-Sf9 + Chol): 1843 pmol TC/mg prot/min
- VMAX of taurocholate transport (mouseBsep; mouseBsep-Sf9 CTRL): 1199 pmol TC/mg prot/min
- VMAX of taurocholate transport (humanBSEP; humanBSEP-Sf9 + Chol): 323 pmol TC/mg prot/min
- VMAX of taurocholate transport (humanBSEP; humanBSEP-Sf9 CTRL): 169.4 pmol TC/mg prot/min

SMILES: CC(C)CCC[C@@H](C)[C@H]1CC[C@H]2[C@@H]3CC=C4C[C@@H](O)CC[C@]4(C)[C@H]3CC[C@]12C [cholesterol]
- Increase of maximum transport rate of ABCG2 by increasing membrane cholesterol levels (wild-type ABCG2 [1]; human): up to 20 fold
- mean relative value of ABCG2 labeling (basic level of nucleotide trapping) after cholesterol loading (wild-type ABCG2 [2]): 105%

SMILES: CN(Cc1cnc2nc(N)nc(N)c2n1)c1ccc(C(=O)N[C@@H](CCC(=O)O)C(=O)O)cc1 [methotrexate]
- MTX transport (in words) (R482G-ABCG2): very low
- Increase of Vmax of vesicular transport by cholesterol loading (wild-type ABCG2 [1]): six-fold
- MTX transport rate (ABCG2-R482T): below 50 pmoles/mg membrane protein/min

From patent publication US8129197B2, “Cholesterol loaded insect cell membranes as test proteins” (SOLVO Biotechnológial ZRT., priority 2006, dated 2012)
